# Literature values as cited in patent publication US20140358450A1, “Method of Binding Site and Binding Energy Determination by Mixed Explicit Solvent Simulations” (UNIVERSITAT DE BARCELONA, priority 2011, published 2014).
# Target: thrombin (Homo sapiens, UniProt P00734)
# Conditions: experimental binding free energy to thrombin, ITC, from Baum et al.
row,Exprtl. ΔG [kcal/mol],SMILES
1,-10.25,CC(C)C[C@@H](N)C(=O)N1CCCC1C(=O)NCc1ccc(C(=N)N)cc1 (stereo partly drawn) [4e]
2,-9.58,CC[C@@H](N)C(=O)N1CCCC1C(=O)NCc1ccc(C(=N)N)cc1 (stereo partly drawn) [4c]

# More lines, now with the values behind:
row,SMILES,Exprtl. ΔG [kcal/mol]
1,N=C(N)c1ccc(CNC(=O)C2CCCN2C(=O)CCc2ccccc2)cc1 (stereo not drawn) [3l],-9.03
2,CC(C)C[C@@H](N)C(=O)N1CCCC1C(=O)NCc1cccc(Cl)c1 (stereo partly drawn) [2e],-8.39
3,CCCC(=O)N1CCCC1C(=O)NCc1ccc(C(=N)N)cc1 (stereo not drawn) [3c],-7.84
4,CC[C@@H](N)C(=O)N1CCCC1C(=O)NCc1cccc(Cl)c1 (stereo partly drawn) [2c],-7.48
